Test results taken from patent US12187681B2 (Shanghai East Hospital, priority 2019, dated 2025).

Assays:
[1] = biological target: T1, hERG (human ether-a-go-go related gene potassium channel, KCNH2) (Homo sapiens, UniProt Q12809); assay: hERG channel whole-cell patch clamp (Ion Channel Activity Measurement); type: cell-based; details: human, room temperature; for inhibition at 1 μM: pH 7.4, 1 μM test article; for inhibition at 10 μM: pH 7.4, 10 μM test article
T1 construct: expressed in transfected cells; host or cells: HEK293
T1 sequence (Q12809 whole entry): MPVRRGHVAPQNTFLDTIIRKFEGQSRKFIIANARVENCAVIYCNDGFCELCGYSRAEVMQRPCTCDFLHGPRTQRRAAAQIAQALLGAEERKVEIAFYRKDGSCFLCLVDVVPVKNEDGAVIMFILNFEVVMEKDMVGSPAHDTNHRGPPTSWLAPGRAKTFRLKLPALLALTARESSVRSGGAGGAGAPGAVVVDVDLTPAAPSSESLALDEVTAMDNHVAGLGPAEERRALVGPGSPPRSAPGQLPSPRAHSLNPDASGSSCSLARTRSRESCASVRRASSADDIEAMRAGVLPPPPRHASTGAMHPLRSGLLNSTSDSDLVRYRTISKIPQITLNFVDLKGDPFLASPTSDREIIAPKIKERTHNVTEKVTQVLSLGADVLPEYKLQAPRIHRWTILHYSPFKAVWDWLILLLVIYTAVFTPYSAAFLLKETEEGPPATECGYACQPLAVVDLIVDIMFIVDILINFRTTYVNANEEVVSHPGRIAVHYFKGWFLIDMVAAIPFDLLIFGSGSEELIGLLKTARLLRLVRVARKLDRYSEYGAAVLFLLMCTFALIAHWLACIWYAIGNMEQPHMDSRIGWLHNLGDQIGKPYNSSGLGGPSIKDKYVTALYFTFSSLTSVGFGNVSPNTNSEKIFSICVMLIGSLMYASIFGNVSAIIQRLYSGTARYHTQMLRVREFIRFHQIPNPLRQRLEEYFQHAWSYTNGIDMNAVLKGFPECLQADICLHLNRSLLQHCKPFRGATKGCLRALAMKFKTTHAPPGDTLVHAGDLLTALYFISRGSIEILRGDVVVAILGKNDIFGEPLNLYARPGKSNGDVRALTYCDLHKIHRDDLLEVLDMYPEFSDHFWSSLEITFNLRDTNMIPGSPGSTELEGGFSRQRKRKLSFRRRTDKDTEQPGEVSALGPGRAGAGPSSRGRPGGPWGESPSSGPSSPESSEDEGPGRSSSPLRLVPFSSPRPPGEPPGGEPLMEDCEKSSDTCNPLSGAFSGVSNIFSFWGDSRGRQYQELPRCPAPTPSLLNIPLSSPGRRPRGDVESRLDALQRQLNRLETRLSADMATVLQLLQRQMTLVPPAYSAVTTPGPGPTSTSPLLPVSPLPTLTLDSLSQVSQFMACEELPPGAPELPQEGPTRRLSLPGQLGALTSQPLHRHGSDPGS
Procedure: HEK293 cell line expressing the human ERG (ether-a-go-go related gene) potassium channel (Potassium voltage-gated channel subfamily H member 2). cDNA strictly similar to GenBank accession number: NM_000238
(§1) Cells expressing channels were cultured in medium supplemented with 20% FBS in HAM'S F12 culture dish. Cells grew in a humidified incubator at 37° C. under 5% carbon dioxide. To passage cells, remove poor medium and rinse the cells once with PBS 1X. […] Place plate on a 37° C. warming incubator 5 min. As soon as cells are detached, add 5 ml of 37° C. complete medium. Draw cell suspension into a sterile pipet and homogenize cells gently to dissociate cells aggregates. Amplify or maintain the cells by seeding 2.5*105 cells in a 6 cm dish (final volume: 5 ml). To maintain electrophysiological performances, cell density must not exceed 80%. On the day before patch clamp experiment, 3*103 cells were seeded on coverslips in the 24-well plate and incubated at 37° C. in 5% carbon dioxide.
(§2) Glass pipette (BF150-86-10, Sutter Instruments) was made by puller (P97, Sutter Instruments). The glass pipette was manipulated using Micro-manipulator (Carm-C-S, MCI Instruments) under the microscope (AE31EF-INV, Motic). After touching the cell, a slight suction was applied to achieve high seal (GΩ). Fast capacitance (in pF) compensation was made after high seal was achieved; after achieving high seal, the membrane was broken, Cell capacitance (in pF) compensation was made from whole-cell capacitance compensation after the whole cell mode was achieved. No leak subtraction was made.
(§3) Cell was incubated with the test article for 5 minutes, or until the current reached a steady-state level. Multiple concentrations of test article were tested. The test articles were applied gradually from low to high concentration. The test and control solutions were flown into a recording chamber mounted on the stage of an inverted microscope via a gravity-fed solution delivery system. During the experiment, solutions were withdrawn from the recording chamber by vacuum aspiration. Each concentration was tested at multiple times. Each cell acted as its own control. All tests were performed at room temperature (23-25° C.).
hERG current was recorded under a holding potential at −80 mV and then depolarized to 30 mV for 2.5 seconds to activate the hERG channel. The peak tail currents were induced by a repolarizing pulse to −50 mV for 4 seconds. This voltage-clamp pulse protocol was performed continuously during the experiment. An interpulse interval of 10 seconds allowed recovery from inactivation. An interpulse of −50 mV test for 0.5 second before 30 mV depolarized step was included for leak current correction

[2] = biological target: T2, CaV1.2 (L-type voltage-dependent calcium channel; CACNA1C, CACNB2, CACNA2D1) (Homo sapiens, UniProt Q13936); assay: CaV1.2 channel whole-cell patch clamp (Ion Channel Activity Measurement); type: cell-based; details: human, room temperature; for inhibition at 5 min, 1 μM: pH 7.4, 1 μM test article; for inhibition at 5 min, 10 μM: pH 7.4, 10 μM test article, read-out: CaV 1.2 10 μM (ion-channel inhibition)
T2 construct: expressed in transfected cells; host or cells: CHO
T2 sequence (Q13936 1-2138 isoform Q13936-12): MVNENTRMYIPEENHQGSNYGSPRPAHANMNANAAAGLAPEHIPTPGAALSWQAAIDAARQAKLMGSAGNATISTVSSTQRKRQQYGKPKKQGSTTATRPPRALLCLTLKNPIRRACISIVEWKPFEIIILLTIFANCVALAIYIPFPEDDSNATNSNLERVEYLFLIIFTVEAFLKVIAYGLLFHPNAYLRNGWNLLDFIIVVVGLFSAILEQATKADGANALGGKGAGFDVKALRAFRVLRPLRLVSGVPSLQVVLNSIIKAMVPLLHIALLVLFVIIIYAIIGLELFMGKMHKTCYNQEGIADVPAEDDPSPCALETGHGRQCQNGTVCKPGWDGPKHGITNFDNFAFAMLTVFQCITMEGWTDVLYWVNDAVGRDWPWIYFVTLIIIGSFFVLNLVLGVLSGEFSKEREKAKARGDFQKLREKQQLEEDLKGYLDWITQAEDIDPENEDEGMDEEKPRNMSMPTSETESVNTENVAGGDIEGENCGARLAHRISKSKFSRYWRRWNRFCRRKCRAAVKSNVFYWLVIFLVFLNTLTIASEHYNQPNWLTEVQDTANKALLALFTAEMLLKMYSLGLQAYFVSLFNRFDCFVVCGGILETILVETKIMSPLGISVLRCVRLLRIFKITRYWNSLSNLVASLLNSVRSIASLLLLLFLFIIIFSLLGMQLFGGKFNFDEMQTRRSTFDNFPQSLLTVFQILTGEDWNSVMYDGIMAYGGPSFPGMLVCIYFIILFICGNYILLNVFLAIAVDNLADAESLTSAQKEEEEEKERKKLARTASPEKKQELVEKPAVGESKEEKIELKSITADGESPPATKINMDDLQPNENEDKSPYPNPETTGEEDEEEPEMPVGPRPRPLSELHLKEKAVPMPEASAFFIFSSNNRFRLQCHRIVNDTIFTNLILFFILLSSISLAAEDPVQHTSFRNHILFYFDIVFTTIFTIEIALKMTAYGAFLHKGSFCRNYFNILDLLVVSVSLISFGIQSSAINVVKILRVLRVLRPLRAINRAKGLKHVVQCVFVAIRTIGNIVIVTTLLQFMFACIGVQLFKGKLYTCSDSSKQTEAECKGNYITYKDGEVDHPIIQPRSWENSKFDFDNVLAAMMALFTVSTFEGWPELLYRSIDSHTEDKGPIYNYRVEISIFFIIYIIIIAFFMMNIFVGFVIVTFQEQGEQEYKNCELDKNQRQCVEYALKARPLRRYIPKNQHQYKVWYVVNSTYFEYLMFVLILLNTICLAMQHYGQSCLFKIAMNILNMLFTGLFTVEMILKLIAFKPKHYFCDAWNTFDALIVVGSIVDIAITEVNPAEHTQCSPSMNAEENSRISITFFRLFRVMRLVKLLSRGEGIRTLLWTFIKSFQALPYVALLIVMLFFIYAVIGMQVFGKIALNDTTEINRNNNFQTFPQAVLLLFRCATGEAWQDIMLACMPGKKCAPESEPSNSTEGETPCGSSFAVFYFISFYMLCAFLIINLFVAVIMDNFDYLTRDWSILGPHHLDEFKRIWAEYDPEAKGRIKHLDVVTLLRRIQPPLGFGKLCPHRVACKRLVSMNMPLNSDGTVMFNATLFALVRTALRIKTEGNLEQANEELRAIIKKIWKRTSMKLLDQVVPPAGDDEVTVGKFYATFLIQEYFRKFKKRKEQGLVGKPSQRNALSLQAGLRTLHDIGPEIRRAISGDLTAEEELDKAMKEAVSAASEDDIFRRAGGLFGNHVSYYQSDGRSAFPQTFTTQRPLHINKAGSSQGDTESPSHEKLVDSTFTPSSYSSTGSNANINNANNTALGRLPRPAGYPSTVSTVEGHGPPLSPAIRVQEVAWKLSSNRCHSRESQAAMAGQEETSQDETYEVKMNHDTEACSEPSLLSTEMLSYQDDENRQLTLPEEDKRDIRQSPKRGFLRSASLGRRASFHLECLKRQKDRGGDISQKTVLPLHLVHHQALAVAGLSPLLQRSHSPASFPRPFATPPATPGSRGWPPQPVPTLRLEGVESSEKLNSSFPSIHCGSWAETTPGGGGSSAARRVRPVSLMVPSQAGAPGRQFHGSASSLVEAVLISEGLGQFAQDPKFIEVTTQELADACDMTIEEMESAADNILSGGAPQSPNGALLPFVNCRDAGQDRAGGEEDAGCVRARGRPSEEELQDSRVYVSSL
T2 sequence (Q08289 1-605 isoform Q08289-2 partner): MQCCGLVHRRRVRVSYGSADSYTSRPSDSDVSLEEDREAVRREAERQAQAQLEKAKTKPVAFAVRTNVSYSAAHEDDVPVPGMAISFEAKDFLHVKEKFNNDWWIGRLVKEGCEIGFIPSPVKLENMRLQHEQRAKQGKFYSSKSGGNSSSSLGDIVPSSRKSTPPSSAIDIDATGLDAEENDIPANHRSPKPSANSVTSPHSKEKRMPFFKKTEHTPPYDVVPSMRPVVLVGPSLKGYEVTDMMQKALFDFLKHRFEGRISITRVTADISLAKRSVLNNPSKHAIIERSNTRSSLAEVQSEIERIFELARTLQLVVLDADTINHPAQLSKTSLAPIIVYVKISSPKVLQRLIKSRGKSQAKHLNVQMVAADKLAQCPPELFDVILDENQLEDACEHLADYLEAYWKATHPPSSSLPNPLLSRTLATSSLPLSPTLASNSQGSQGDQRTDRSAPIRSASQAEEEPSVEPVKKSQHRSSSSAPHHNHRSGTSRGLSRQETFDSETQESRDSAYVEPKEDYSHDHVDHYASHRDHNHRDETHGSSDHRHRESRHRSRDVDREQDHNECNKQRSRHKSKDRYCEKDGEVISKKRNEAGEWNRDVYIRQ
T2 sequence (P54289 25-1091 isoform P54289-2 partner limits assumed): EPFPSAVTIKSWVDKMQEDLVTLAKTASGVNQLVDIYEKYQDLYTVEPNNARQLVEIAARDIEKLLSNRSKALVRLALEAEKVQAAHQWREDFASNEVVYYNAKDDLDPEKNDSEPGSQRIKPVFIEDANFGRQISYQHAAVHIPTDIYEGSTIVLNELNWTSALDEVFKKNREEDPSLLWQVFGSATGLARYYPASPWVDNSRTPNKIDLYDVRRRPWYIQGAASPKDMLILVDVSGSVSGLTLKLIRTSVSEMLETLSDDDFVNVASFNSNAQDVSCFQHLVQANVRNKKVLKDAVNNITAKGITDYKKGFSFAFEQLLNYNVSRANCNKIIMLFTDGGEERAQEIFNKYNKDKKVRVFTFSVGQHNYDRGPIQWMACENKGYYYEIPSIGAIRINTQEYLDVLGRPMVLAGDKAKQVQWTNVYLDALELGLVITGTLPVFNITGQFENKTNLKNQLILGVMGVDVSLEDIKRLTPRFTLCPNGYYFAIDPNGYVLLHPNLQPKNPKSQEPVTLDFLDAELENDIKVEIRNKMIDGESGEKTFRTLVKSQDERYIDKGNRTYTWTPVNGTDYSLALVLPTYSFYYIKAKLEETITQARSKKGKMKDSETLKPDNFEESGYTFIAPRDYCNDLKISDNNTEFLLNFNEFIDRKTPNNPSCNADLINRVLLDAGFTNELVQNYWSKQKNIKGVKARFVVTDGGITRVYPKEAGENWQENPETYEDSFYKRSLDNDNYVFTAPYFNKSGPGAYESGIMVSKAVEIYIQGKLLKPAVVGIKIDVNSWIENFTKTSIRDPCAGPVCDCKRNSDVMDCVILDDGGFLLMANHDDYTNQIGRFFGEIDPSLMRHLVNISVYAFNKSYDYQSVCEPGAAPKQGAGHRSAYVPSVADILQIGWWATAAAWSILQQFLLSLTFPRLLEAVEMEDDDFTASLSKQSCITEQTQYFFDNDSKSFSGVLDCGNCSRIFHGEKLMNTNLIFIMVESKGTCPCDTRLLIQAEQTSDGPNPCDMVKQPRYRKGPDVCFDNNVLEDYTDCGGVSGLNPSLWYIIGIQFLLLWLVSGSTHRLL
T2 sequence (P54289 957-1103 partner limits assumed): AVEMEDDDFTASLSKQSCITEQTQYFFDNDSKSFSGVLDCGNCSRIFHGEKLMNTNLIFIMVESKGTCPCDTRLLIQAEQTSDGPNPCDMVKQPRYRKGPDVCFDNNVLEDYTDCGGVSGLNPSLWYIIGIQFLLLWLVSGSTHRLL
Procedure: • CHO cell line stably expressing human calcium channel, voltage-dependent, L type, • CACNA1C: cDNA strictly similar to GenBank accession number: NM_000719 • CACNB2: cDNA strictly similar to GenBank accession number: NM_000724 • CACNA2D1: cDNA strictly similar to GenBank accession number: NM_000722 Iks Channel Cell Line:
as §1
Bath solution: 140 mM TEA-C1, 2 mM MgCl2·6H2O, 10 mM CaCl2, 10 mM HEPES, 5 mM D-glucose, pH=7.4 with TEA-OH. Pipette solution: 120 mM CsCl, 1 mM MgCl2·6H2O, 10 mM HEPES, 10 mM EGTA, 0.3 mM Na2-GTP, 4 mM Mg-ATP, pH=7.2 with CsOH.
as §2, §3
Cav1.2 current was recorded under a holding potential at −80 mV and then depolarized to +10 mV for 0.3 seconds. This protocol was repeated at 20 s intervals to observe the effect of test articles on the peak of Cav1.2 current.

[3] = HEK293 cells expressing the human ERG potassium channel

Row | SMILES | inhibition at 1 μM [1, 3] [%] | inhibition at 10 μM [1, 3] [%] | inhibition at 5 min, 1 μM [2] [%] | inhibition at 5 min, 10 μM [2] [%] | inhibition at 1 μM [1] [%] | inhibition at 10 μM [1] [%]
1 | Cc1ccc(O)c(Cc2c(O)ccc(C)c2C)c1C [Compound A017, 2,2′-methylenebis(3,4-dimethylphenol)] | < 25 | 25 to 50 | < 25 | 25 to 50 | – | –
2 | c1ccc(COc2ccc3ccccc3c2Cc2c(OCCN3CCCC3)ccc3ccccc23)cc1 [Compound A291, 1-(2-((1-((2-(benzyloxy)naphthalen-1-yl)methyl)naphthalen-2-yl)oxy)ethyl)pyrrolidine] | 75 to 100 | – | < 25 | – | – | –
3 | NC(=O)c1ccc2c(Cc3c(O)ccc4ccccc34)c(O)ccc2c1 [Compound A122, 6-hydroxy-5-((2-hydroxynaphthalen-1-yl)methyl)-2-naphthamide] | 25 to 50 | 75 to 100 | < 25 | 75 to 100 | – | –
4 | O=C(O)c1ccc2ccccc2c1Cc1c(C(=O)O)ccc2ccccc12 [Compound A100, 1,1′-methylenebis(2-naphthoic acid)] | < 25 | < 25 | < 25 | < 25 | – | –
5 | Oc1cccc2c1C(c1c(O)ccc3ccccc13)CCC2 (stereo not drawn) [Compound A077, 1′,2′,3′,4′-tetrahydro-[1,1′-binaphthalene]-2,8′-diol] | < 25 | 50 to 75 | < 25 | < 25 | – | –
6 | Nc1cc(Cc2c(N)ccc3ccccc23)c2ccccc2c1 [Compound A022-2, 4-((2-aminonaphthalen-1-yl)methyl)naphthalen-2-amine] | < 25 | 75 to 100 | < 25 | 25 to 50 | – | –
7 | Oc1ccc2ccccc2c1Cn1nc(-c2ccccc2)cc1O [Compound A059] | – | – | < 25 | < 25 | < 25 | < 25
8 | CCN(CC)CC(=O)Oc1ccc2ccccc2c1Cc1c(OC)ccc2ccccc12 [Compound A232, 1-((2-methoxynaphthalen-1-yl)methyl)naphthalen-2-yl diethylglycinate] | – | – | < 25 | 75 to 100 | 50 to 75 | 75 to 100
9 | CCN(CC)CCOc1ccc2ccccc2c1N(C)c1c(OC)ccc2ccccc12 [Compound A111-I-2, 2-(2-(diethylamino)ethoxy)-N-(2-methoxynaphthalen-1-yl)-N-methylnaphthalen-1-amine 2,2,2-trifluoroacetate] | 50 to 75 | 75 to 100 | < 25 | 25 to 50 | – | –
10 | O=C(O)c1ccc2c(Cc3c(O)ccc4ccccc34)c(O)ccc2c1 [Compound A114, 6-hydroxy-5-((2-hydroxynaphthalen-1-yl)methyl)-2-naphthoic acid] | < 25 | 50 to 75 | < 25 | < 25 | – | –
11 | CN1CCC(COc2ccc3ccccc3c2Cc2c(O)ccc3ccccc23)C1 (stereo not drawn) [Compound A262, 1-((2-((1-methylpyrrolidin-3-yl)methoxy)naphthalen-1-yl)methyl)naphthalen-2-ol] | 75 to 100 | 75 to 100 | < 25 | 75 to 100 | – | –
12 | CCN(CC)CC(=O)Nc1ccc2ccccc2c1Cc1c(OC)ccc2ccccc12 [Compound A284, 2-(diethylamino)-N-(1-((2-methoxynaphthalen-1-yl)methyl)naphthalen-2-yl)acetamide] | 25 to 50 | – | < 25 | < 25 | – | –
13 | CC(C)(O)c1cc2ccccc2c(Cc2c(O)c(C(C)(C)O)cc3ccccc23)c1O [Compound A047, 1,1′-methylenebis(3-(2-hydroxypropan-2-yl)naphthalen-2-ol)] | < 25 | – | < 25 | 50 to 75 | – | –
